Patent US20100210617A1, “Aryl-Alkylamines And Heteroaryl-Alkylamines As Protein Kinase Inhibitors” (ASTEX THERAPEUTICS LIMITED, priority 2005, published 2010)
Where a name gives a salt, the structure may show the parent alone.

Key:
[1] = target: T1, protein kinase B (PKB), fusion protein PKB-PIF (Homo sapiens, UniProt P31751); experiment: Measurement of PKB kinase inhibitory activity (IC50); type: biochemical; settings: 0.6 nM enzyme, 30 μM ATP/γ33P-ATP, 25 μM AKTide-2T substrate, 20 minutes; read-out: IC50, concentration required to inhibit 50% of the PKB activity
T1 construct: made in house
T1 sequence (P31751 with tags, fused parts or gaps limits assumed): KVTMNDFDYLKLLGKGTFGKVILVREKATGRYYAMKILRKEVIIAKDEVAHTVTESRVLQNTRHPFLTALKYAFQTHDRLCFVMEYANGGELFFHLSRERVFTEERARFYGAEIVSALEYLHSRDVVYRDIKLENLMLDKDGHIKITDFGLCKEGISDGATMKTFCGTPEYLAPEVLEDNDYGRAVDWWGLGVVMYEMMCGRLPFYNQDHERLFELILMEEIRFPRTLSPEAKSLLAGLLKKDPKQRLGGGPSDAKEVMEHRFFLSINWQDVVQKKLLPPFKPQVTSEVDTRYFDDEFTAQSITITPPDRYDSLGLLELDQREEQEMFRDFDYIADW
Protocol: The inhibition of protein kinase B (PKB) activity by compounds can be determined essentially as described by Andjelkovic et al. (Mol. Cell. Biol. 19, 5061-5072 (1999)) but using a fusion protein described as PKB-PIF and described in full by Yang et al (Nature Structural Biology 9, 940-944 (2002)). […] A final concentration of 0.6 nM enzyme is used in a buffer that includes 20 mM MOPS pH 7.2, 30 μM ATP/γ^33P-ATP and 25 μM substrate. Compounds are added in DMSO solution to a final DMSO concentration of 2.5%. The reaction is allowed to proceed for 20 minutes before addition of excess orthophosphoric acid to quench activity. The reaction mixture is transferred to a phosphocellulose filter plate where the peptide binds and the unused ATP is washed away. After washing, scintillant is added and the incorporated activity measured by scintillation counting.
The % inhibition of the PKB activity is calculated and plotted in order to determine the concentration of test compound required to inhibit 50% of the PKB activity (IC50).

[2] = target: T2, PKA catalytic domain (Homo sapiens, UniProt P17612); experiment: Measurement of PKA kinase inhibitory activity (IC50); type: biochemical; settings: 1 nM enzyme, 40 μM ATP/γ33P-ATP, 5 μM peptide substrate […], 20 minutes; read-out: IC50, concentration required to inhibit 50% of the PKA activity
T2 construct: using the PKA catalytic domain from Upstate Biotechnology (#14-440); purchased Upstate Biotechnology 14-440
Protocol: A final concentration of 1 nM enzyme is used in a buffer that includes 20 mM MOPS pH 7.2, 40 μM ATP/γ^33P-ATP and 5 μM substrate. Compounds are added in dimethylsulphoxide (DMSO) solution to a final DMSO concentration of 2.5%. The reaction is allowed to proceed for 20 minutes before addition of excess orthophosphoric acid to quench activity. Unincorporated γ^33P-ATP is then separated from phosphorylated proteins on a Millipore MAPH filter plate. The plates are washed, scintillant is added and the plates are then subjected to counting on a Packard Topcount.

| Structure (SMILES) | IC50 [1] [µM] | IC50 [2] [µM] |
| --- | --- | --- |
| NCCC(O)(c1ccc(Cl)cc1)c1ccc(-c2cn[nH]c2)cc1 (racemic) [Example 92, 3-Amino-1-(4-chloro-phenyl)-1-[4-(1H-pyrazol-4-yl)-phenyl]-propan-1-ol] | < 0.1 | < 0.1 |
| NCC[C@@](O)(c1ccc(Cl)cc1)c1ccc(-c2cn[nH]c2)cc1 [Example 99A, (S)-3-Amino-1-(4-chloro-phenyl)-1-[4-(1H-pyrazol-4-yl)-phenyl]-propan-1-ol] | < 0.1 | < 0.1 |
| COc1ccc(C2(c3ccc(-c4cn[nH]c4)cc3)CNC2)cc1 [Example 82, 4-{-4-[3-(4-Methoxy-phenyl)-azetidin-3-yl]-phenyl}-1H-pyrazole formate] | < 1 | < 1 |
| NCCC(c1ccc(-c2cn[nH]c2)cc1)c1ccc(Cl)c(F)c1 (stereo not shown) [Example 1, 3-(4-Chloro-3-fluoro-phenyl)-3-[4-(1H-pyrazol-4-yl)-phenyl]-propylamine] | < 0.1 | < 0.1 |
| Clc1cccc(C2(c3ccc(-c4cn[nH]c4)cc3)CCNCC2)c1 [Example 84, 4-(3-Chloro-phenyl)-4-[4-(1H-pyrazol-4-yl)-phenyl]-piperidine] | < 0.1 | < 0.1 |
| COc1ccc(C2(c3ccc(-c4c[nH]nc4C)cc3)CCNCC2)cc1 [Example 86, 4-(4-Methoxy-phenyl)-4-[4-(3-methyl-1H-pyrazol-4-yl)-phenyl]piperidine dihydrochloride] | < 0.1 | < 0.1 |
| Clc1ccc(C2(c3ccc(-c4cn[nH]c4C4CC4)cc3)CCNCC2)cc1 [Example 88, 4-(4-Chloro-phenyl)-4-[4-(5-cyclopropyl-1H-pyrazol-4-yl)-phenyl]-piperidine] | < 0.1 | < 1 |
| COc1ccc(C2(c3ccc(-c4cn[nH]c4)cc3)CCNCC2)cn1 [Example 90, 4-(2-Methoxy-5-pyridin-yl)-4-[4-(1H-pyrazol-4-yl)-phenyl]-piperidine] | < 1 | < 0.1 |
| NCC[C@H](c1ccc(-c2cn[nH]c2)cc1)c1ccc(Cl)c(Cl)c1 [Example 2, (R)-3-(3,4-Dichloro-phenyl)-3-[4-(1H-pyrazol-4-yl)-phenyl]-propylamine] | < 0.1 | – |
| NCCC(O)(c1ccc(-c2cn[nH]c2)cc1)c1ccc(Cl)c(Cl)c1 (stereo not shown) [Example 96, 3-Amino-1-(3,4,-dichlorophenyl)-1-[4-(1H-pyrazol-4-yl)-phenyl]-propan-1-ol] | < 0.1 | < 0.1 |
| COc1cccc(OCC2(c3ccc(-c4c[nH]nc4C)cc3)CCNCC2)c1 [Example 77, 4-(3-Methoxy-phenoxymethyl)-4-[4-(3-methyl-1H-pyrazol-4-yl)-phenyl]-piperidine] | < 1 | < 1 |
| NCCC(O)(c1ccc(Cl)cc1)c1ccc(-c2cn[nH]c2)cc1F (stereo not shown) [Example 94, 3-Amino-1-(4-chlorophenyl)-1-[2-fluoro-4-(1H-pyrazol-4-yl)-phenyl]-propan-1-ol-acetic acid salt] | < 0.1 | < 0.1 |
| CN(C)c1cccc(C2(c3ccc(-c4cn[nH]c4)cc3)CCNCC2)c1 [Example 89, Dimethyl-(3-{4-[4-(1H-pyrazol-4-yl)-phenyl]-piperidin-4-yl}-phenyl)-amine] | < 1 | < 1 |
| CCc1[nH]ncc1-c1ccc(C2(c3ccc(Cl)cc3)CCNCC2)cc1 [Example 87, 4-(4-Chloro-phenyl)-4-[4-(5-ethyl-1H-pyrazol-4-yl)-phenyl]-piperidine] | < 1 | < 1 |
| c1cc(C2(c3ccc4c(c3)OCCO4)CCNCC2)ccc1-c1cn[nH]c1 [Example 83, 4-(2,3-Dihydro-benzo[1,4]dioxin-6-yl)-4-[4-(1H-pyrazol-4-yl)-phenyl]-piperidine] | < 0.1 | < 0.1 |
| COc1ccc(-c2cccc(C3(c4ccc(-c5cn[nH]c5)cc4)CCNCC3)c2)cc1 [Example 85, 4-(4′-Methoxy-biphenyl-3-yl)-4-[4-(1H-pyrazol-4-yl)-phenyl]-piperidine dihydrochloride] | < 1 | < 0.1 |
| Cc1n[nH]cc1-c1ccc(C2(COc3cccc(-c4nc5ccccc5o4)c3)CCNCC2)cc1 [Example 93, 2-(3-{4-[4-(3-Methyl-1H-pyrazol-4-yl)-phenyl]-piperidin-4-ylmethoxy}-phenyl)-benzooxazole] | < 0.1 | – |
| NCC(O)(c1ccc(Cl)cc1)c1ccc(-c2cn[nH]c2)cn1 (stereo not shown) [Example 91, 2-Amino-1-(4-chloro-phenyl)-[5-(1H-pyrazol-4-yl)-pyridin-2-yl]-ethanol hydrochloride] | < 1 | < 0.1 |
| CCc1n[nH]cc1-c1ccc(C(O)(CN)c2ccc(Cl)cc2)cc1 (stereo not shown) [Example 80, 2-Amino-1-(4-chloro-phenyl)-1-[4-(3-ethyl-1H-pyrazol-4-yl)-phenyl]-ethanol] | < 0.1 | < 0.1 |
| Cc1n[nH]cc1-c1ccc(C(O)(CN)c2ccc(Cl)cc2)cc1 (stereo not shown) [Example 79, 2-Amino-1-(4-chloro-phenyl)-1-[4-(3-methyl-1H-pyrazol-4-yl)-phenyl]-ethanol] | < 0.1 | < 0.1 |
| NCCC(O)(c1ccc(-c2cn[nH]c2)cc1)c1ccc(Cl)c(F)c1 (stereo not shown) [Example 95, 3-Amino-1-(4-chloro-3-fluoro-phenyl)-1-[4-(1H-pyrazol-4-yl)-phenyl]-propan-1-ol] | < 0.1 | < 0.1 |
| NCC[C@](O)(c1ccc(Cl)cc1)c1ccc(-c2cn[nH]c2)cc1 [Example 99B, (R)-3-Amino-1-(4-chloro-phenyl)-1-[4-(1H-pyrazol-4-yl)-phenyl]-propan-1-ol] | < 0.1 | – |
| Clc1ccc(C2(c3ccc(-c4cn[nH]c4)cc3)CCNC2)cc1 (stereo not shown) [Example 81, 4-{4-[3-(4-Chloro-phenyl)-pyrrolidin-3-yl]-phenyl}-1H-pyrazole formate] | < 1 | < 1 |
